The subject of one series is melanin cell. The experiment in a line: B-2 Inhibition test of cell melanin synthesis (chromogenic method). Particulars: for inhibitory effect on cellular melanin synthesis (in words): at a lower concentration (no more than 0.10% g/m L); for inhibitory effect on cellular melanin synthesis compared with kojic acid: comparison with kojic acid. It is filed as cell-based. As to the method:
According to cytotoxicity test data, an inhibition test of cell melanin synthesis was performed within the range allowed by cytotoxicity. The range allowed by cytotoxicity is a range of sample concentration corresponding to a relative cell viability more than 60% in the cytotoxicity test. The samples were grouped according to different concentrations, and a test index was melanin content, a test model was melanin cell, and a detection method is a chromogenic method. Cells at logarithmic growth phase were collected, and the cells were inoculated into 24-well plates at a cell density of 2×10^5 cells/well. After 24 h of incubation in the incubator (37° C., 5% CO2), according to the results of cytotoxicity, the drug was added according to the concentration requirements. The untreated cells were used as a blank control, and three parallel controls were set up in each group. After the drug added, the incubation was continued in the incubator (37° C., 5% CO2) for 48 h. The supernatant was discarded, 1 mL of 1 M NaOH containing 10% DMSO was added, and the plate was placed in a thermostatic oven for incubation at 60° C. for 1 h. After restoring to a room temperature, 200 μL mixed solution of each well was transferred to a 96-well plate, and 1 M NaOH containing 10% DMSO was used as a blank control. The absorbance value was read at 405 nm, and the inhibition rate of cellular melanin synthesis was calculated according to the following equation (5): […]

For series [1], the system named is human melanoma cells (G361). Briefly: B-1 Cytotoxicity test (MTT, relative cell viability). It is filed as cell-based. Particulars: 24 h. As to the method: • a) Cell inoculation: human melanoma cells (G361) were inoculated into 96-well plates at a density of 1×10^4 cells/well, and the 96-well plates were placed in an incubator (37° C., 5% CO2) overnight for incubation. • b) Experimental grouping: the experiments were set up with a zeroing group, a control group, a positive control group, and a sample group. In the sample group, each sample was set up with different concentration gradients, and 3 replicate wells were set up under each concentration gradient. • c) Solution preparation: different concentrations of sample working solution were prepared according to the concentrations in Table 4. • d) Drug administration: a drug administration was performed until the cell plating rate in the 96-well plate reaches 40%-60%. In the control group, 200 μL of culture medium containing 10% PBS (Gibco) […] was added to each well; in the positive control group, 200 μL of culture medium containing 10% DMSO was added to each well; in the sample group, 200 μL of culture medium containing the corresponding concentration of sample was added to each well; in the zeroing group, no cell was inoculated and only 200 μL of cell culture medium was added. After the drug administration completed, the 96-well plates were placed in an incubator (37° C., 5% CO2) for incubation. • e) Detection: after incubation for 24 h, the supernatant was discarded, and MTT working solution (0.5 mg/mL) was added and incubated at 37° C. in the dark for 4 h. After incubation, the supernatant was discarded, and 100 μL DMSO was added into each well and the OD value was obtained at 490 nm. • f) Relative cell viability was calculated by the following equation (4): […]

Molecules are shown by their SMILES.

Regarding `CC(c1ccc(O)cc1O)N1CCCCC1=O` (centres unmarked) [I-a], in the series on melanin cell, the “inhibitory effect on cellular melanin synthesis (in words)” value (“inhibitory effect … (in words)” for short) was “have an inhibitory effect on cellular melanin synthesis” and the “inhibitory effect on cellular melanin synthesis compared with kojic acid” value is listed as “superior to that of kojic acid”.
On the same counts, the results for `CCC(c1ccc(O)cc1O)N1CCCC1=O` (centres unmarked) [I-d] are “have an inhibitory effect on cellular melanin synthesis” and “superior to that of kojic acid”.
Consider `CCCC(c1ccc(O)cc1O)N1CCCCC1=O` (centres unmarked) [I-e], for which the “inhibitory effect … (in words)” value with melanin cell was “have an inhibitory effect on cellular melanin synthesis”.
Same read-out and setting: in the case of `CCCC(c1ccc(O)cc1O)N1CCCC1=O` (centres unmarked) [I-f] it was “have an inhibitory effect on cellular melanin synthesis”.
Take `CC(c1ccc(O)cc1O)N1CCCCCC1=O` (centres unmarked) [I-g]: the Relative cell viability in series [1] (human, 0.007813 % (g/mL)) is reported as 117.8165%; in series [1] (human, 0.015625 % (g/mL)) it was 120.6987%; in series [1] (human, 0.03125 % (g/mL)), 107.8966%; in series [1] (human, 0.125 % (g/mL)), 113.8122%; in series [1] (human, 0.25 % (g/mL)) it was 120.9409%; in series [1] (human, 0.5 % (g/mL)), 107.9874%. In the series on melanin cell, the “inhibitory effect … (in words)” value was “have an inhibitory effect on cellular melanin synthesis”.
On to `CC(c1ccc(O)cc1O)N1CCCC1=O` (centres unmarked) [I-h], for which the “inhibitory effect … (in words)” value in the series with melanin cell is recorded as “have an inhibitory effect on cellular melanin synthesis”.
On to `CC(c1ccccc1)c1cc(C(C)c2ccccc2)c(O)cc1O` (centres unmarked) [V-a], for which, in the series with melanin cell, the “inhibitory effect … (in words)” value was “have an inhibitory effect on cellular melanin synthesis” and the “inhibitory effect on cellular melanin synthesis compared with kojic acid” value is “superior to that of kojic acid”.
For `CC(c1cc(C(C)N2CCCC2=O)c(O)cc1O)N1CCCC1=O` (centres unmarked) [V-c], the “inhibitory effect … (in words)” value in the series on melanin cell is “have an inhibitory effect on cellular melanin synthesis”.
With `CC(c1ccccc1)c1ccc(O)cc1O` (centres unmarked) [control group, phenylethyl resorcinol, reference compound], the Relative cell viability is 106.32% in series [1] (G361 cells, MTT, sample concentration 0.007813 % (g/mL)); 114.68% in series [1] (G361 cells, MTT, sample concentration 0.015625 % (g/mL)); 101.15% in series [1] (G361 cells, MTT, sample concentration 0.03125 % (g/mL)); 100.10% in series [1] (G361 cells, MTT, sample concentration 0.125 % (g/mL)); 106.07% in series [1] (G361 cells, MTT, sample concentration 0.25 % (g/mL)); 96.77% in series [1] (G361 cells, MTT, sample concentration 0.5 % (g/mL)).

(Values after patent publication US20250074876A1, “DIPHENOLIC COMPOUNDS AND PREPARATION METHODS THEREOF” (PURPANA (BEIJING) TECHNOLOGIES CO., LTD., priority 2022, published 2025).)
